Laboratory results taken from patent publication US20100311714A1, “1H-IMIDAZO[4,5-c]QUINOLINONE COMPOUNDS” (priority 2009, published 2010).
Read-outs that look alike come from different tables or passages of the source.

What was measured:
[1] = test system: PKB Ser473 phosphorylation in Rat1-myr-HA-p110 beta cells; assay: Reverse protein array, PKB Ser473 phosphorylation in Rat1-myr-HA-p110 beta cells; format: cell-based; conditions: Rattus norvegicus, 0.5 h, 30 minutes compound incubation, read-out: p-PKB/IC50_beta
[2] = test system: S6 Ribosomal Protein phosphorylation Ser235/236 in TSC1 null mouse embryo fibroblast (MEF) cells; assay: Reverse protein array, S6 Ribosomal Protein phosphorylation in TSC1 null MEF cells; format: cell-based; conditions: 1 h, TSC1-/- MEFs, 60 minutes
Outline: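 Phospho-S6 (Ser235/236) was quantified by reverse protein array of cell lysates with a phospho-specific primary antibody. […]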

| Compound | IC50 [1] | IC50 ([2]; read-out: p-S6 IC50) | IC50 ([2]; read-out: p-S6) |
| --- | --- | --- | --- |
| Cc1cc(F)ncc1-n1c(=O)n(C)c2cnc3ccc(-c4cnc5c(ccn5C)c4)cc3c21 [Example 16.5, 1-(6-Fluoro-4-methyl-pyridin-3-yl)-3-methyl-8-(1-methyl-1H-pyrrolo[2,3-b]pyridin-5-yl)-1,3-dihydro-imidazo[4,5-c]quinolin-2-one] | – | 0.0126 µM | – |
| CNc1ccc(-c2ccc3ncc4c(c3c2)n(-c2ccc(N3CCCC3)nc2C)c(=O)n4C)cn1 [Example 25.1, 3-Methyl-8-(6-methylamino-pyridin-3-yl)-1-(2-methyl-6-pyrrolidin-1-yl-pyridin-3-yl)-1,3-dihydro-imidazo[4,5-c]quinolin-2-one] | 0.0107 µM | 0.001 µM | – |
| COc1ncccc1-n1c(=O)n(C)c2cnc3ccc(-c4cnc5c(ccn5C)c4)cc3c21 [Example 1.7, 1-(2-Methoxy-pyridin-3-yl)-3-methyl-8-(1-methyl-1H-pyrrolo[2,3-b]pyridin-5-yl)-1,3-dihydro-imidazo[4,5-c]quinolin-2-one] | 0.0296 µM | – | 0.0121 µM |
| COc1ncccc1-n1c(=O)n(C)c2cnc3ccc(-c4cnc(N)c(C(F)(F)F)c4)cc3c21 [Example 1.3, 8-(6-Amino-5-trifluoromethyl-pyridin-3-yl)-1-(2-methoxy-pyridin-3-yl)-3-methyl-1,3-dihydro-imidazo[4,5-c]quinolin-2-one] | 0.0139 µM | – | 0.00152 µM |
| CNc1ccc(-c2ccc3ncc4c(c3c2)n(-c2ccc(NC(=O)COC)nc2C)c(=O)n4C)cn1 [Example 20.4, 2-Methoxy-N-{6-methyl-5-[3-methyl-8-(6-methylamino-pyridin-3-yl)-2-oxo-2,3-dihydro-imidazo[4,5-c]quinolin-1-yl]-pyridin-2-yl}-acetamide] | 0.0095 µM | 0.063 µM | – |
| CNc1ncc(-c2ccc3ncc4c(c3c2)n(-c2cnc(F)cc2C)c(=O)n4C)cn1 [Example 16.3, 1-(6-Fluoro-4-methyl-pyridin-3-yl)-3-methyl-8-(2-methylamino-pyrimidin-5-yl)-1,3-dihydro-imidazo[4,5-c]quinolin-2-one] | 0.302 µM | 0.022 µM | – |
| COCc1ncc(-c2ccc3ncc4c(c3c2)n(-c2ccc(OC)nc2OC)c(=O)n4C)cc1OC [Example 8.12, 1-(2,6-Dimethoxy-pyridin-3-yl)-8-(5-methoxy-6-methoxymethyl-pyridin-3-yl)-3-methyl-1,3-dihydro-imidazo[4,5-c]quinolin-2-one] | 0.0816 µM | 0.004 µM | – |
| COc1ccc(-n2c(=O)n(C)c3cnc4ccc(-c5ccc6nccn6c5)cc4c32)c(OC)n1 [Example 8.10, 1-(2,6-Dimethoxy-pyridin-3-yl)-8-imidazo[1,2-a]pyridin-6-yl-3-methyl-1,3-dihydro-imidazo[4,5-c]quinolin-2-one] | – | 0.0068 µM | – |
| COc1ccc(-n2c(=O)n(C)c3cnc4ccc(-c5cnc(N(C)C)nc5)cc4c32)c(Cl)n1 [Example 18.3, 1-(2-Chloro-6-methoxy-pyridin-3-yl)-8-(2-dimethylamino-pyrimidin-5-yl)-3-methyl-1,3-dihydro-imidazo[4,5-c]quinolin-2-one] | – | 0.0043 µM | – |
| CCNc1cc(-c2ccc3ncc4c(c3c2)n(-c2ccc(OC)nc2Cl)c(=O)n4C)cnc1C [Example 18.1, 1-(2-Chloro-6-methoxy-pyridin-3-yl)-8-(5-ethylamino-6-methyl-pyridin-3-yl)-3-methyl-1,3-dihydro-imidazo[4,5-c]quinolin-2-one] | – | < 0.000457 µM | – |

Second part, led by results:

| IC50 [1] | Compound | IC50 ([2]; read-out: p-S6 IC50) | IC50 ([2]; read-out: p-S6) |
| --- | --- | --- | --- |
| 0.0395 µM | COCCOc1cc(-c2ccc3ncc4c(c3c2)n(-c2ccc(OC)nc2OC)c(=O)n4C)cnc1C [Example 8.9, 1-(2,6-Dimethoxy-pyridin-3-yl)-8-[5-(2-methoxy-ethoxy)-6-methyl-pyridin-3-yl]-3-methyl-1,3-dihydro-imidazo[4,5-c]quinolin-2-one] | 0.004 µM | – |
| 0.0217 µM | CCOc1ccc(-c2ccc3ncc4c(c3c2)n(-c2ccc(C)nc2C)c(=O)n4C)cn1 [Example 14.2, 1-(2,6-Dimethyl-pyridin-3-yl)-8-(6-ethoxy-pyridin-3-yl)-3-methyl-1,3-dihydro-imidazo[4,5-c]quinolin-2-one] | 0.016 µM | – |
| 0.0321 µM | COCCOc1ccc(-n2c(=O)n(C)c3cnc4ccc(-c5cncc(N6CCC6)c5)cc4c32)c(C)n1 [Example 22.2, 8-(5-Azetidin-1-yl-pyridin-3-yl)-1-[6-(2-methoxy-ethoxy)-2-methyl-pyridin-3-yl]-3-methyl-1,3-dihydro-imidazo[4,5-c]quinolin-2-one] | 0.002 µM | – |
| 0.0116 µM | CNc1ncc(-c2ccc3ncc4c(c3c2)n(-c2ccc(OCCOC)nc2C)c(=O)n4C)cn1 [Example 13.5, 1-[6-(2-Methoxy-ethoxy)-2-methyl-pyridin-3-yl]-3-methyl-8-(2-methylamino-pyrimidin-5-yl)-1,3-dihydro-imidazo[4,5-c]quinolin-2-one] | 0.0011 µM | – |
| 0.0075 µM | CCNc1cc(-c2ccc3ncc4c(c3c2)n(-c2ccc(OC)nc2C)c(=O)n4C)cnc1C [Example 11.7, 8-(5-Ethylamino-6-methyl-pyridin-3-yl)-1-(6-methoxy-2-methyl-pyridin-3-yl)-3-methyl-1,3-dihydro-imidazo[4,5-c]quinolin-2-one] | 0.002 µM | – |
| 0.0214 µM | CNc1ncc(-c2ccc3ncc4c(c3c2)n(-c2ccc(N(C)CCOC)nc2C)c(=O)n4C)cn1 [Example 15.2, 1-{6-[(2-Methoxy-ethyl)-methyl-amino]-2-methyl-pyridin-3-yl}-3-methyl-8-(2-methylamino-pyrimidin-5-yl)-1,3-dihydro-imidazo[4,5-c]quinolin-2-one] | 0.007 µM | – |
| 0.0656 µM | Cc1cc(F)ncc1-n1c(=O)n(C)c2cnc3ccc(-c4cnc(N)c(C(F)(F)F)c4)cc3c21 [Example 16.1, 8-(6-Amino-5-trifluoromethyl-pyridin-3-yl)-1-(6-fluoro-4-methyl-pyridin-3-yl)-3-methyl-1,3-dihydro-imidazo[4,5-c]quinolin-2-one] | < 0.000457 µM | – |
| < 0.00457 µM | CCNc1cc(-c2ccc3ncc4c(c3c2)n(-c2ccc(N(C)CC)nc2C)c(=O)n4C)cnc1C [Example 12.2, 8-(5-Ethylamino-6-methyl-pyridin-3-yl)-1-[6-(ethyl-methyl-amino)-2-methyl-pyridin-3-yl]-3-methyl-1,3-dihydro-imidazo[4,5-c]quinolin-2-one] | 0.003 µM | – |
| 0.0506 µM | CCOCc1cc(-c2ccc3ncc4c(c3c2)n(-c2ccc(F)nc2C)c(=O)n4C)cnc1N [Example 7.15, 8-(6-Amino-5-ethoxymethyl-pyridin-3-yl)-1-(6-fluoro-2-methyl-pyridin-3-yl)-3-methyl-1,3-dihydro-imidazo[4,5-c]quinolin-2-one] | 0.008 µM | – |
| 0.01 µM | CCNc1cc(-c2ccc3ncc4c(c3c2)n(-c2ccc(F)nc2C)c(=O)n4C)cnc1CO [Example 7.9, 8-(5-Ethylamino-6-hydroxymethyl-pyridin-3-yl)-1-(6-fluoro-2-methyl-pyridin-3-yl)-3-methyl-1,3-dihydro-imidazo[4,5-c]quinolin-2-one] | 0.005 µM | – |
| 0.17 µM | COCC(=O)Nc1ccc(-n2c(=O)n(C)c3cnc4ccc(-c5cncc(N)c5)cc4c32)c(C)n1 [Example 20.1, N-{5-[8-(5-Amino-pyridin-3-yl)-3-methyl-2-oxo-2,3-dihydro-imidazo[4,5-c]quinolin-1-yl]-6-methyl-pyridin-2-yl}-2-methoxy-acetamide] | 0.032 µM | – |
